Where two headings read alike, the source gives them in different places.
Tests used:
[1] = tested on: mu opiate receptor (MOR); assay: MOR agonist activity using [35S]GTPγS binding assay in striatal membranes; assay type: biochemical; details: for MOR agonist activity ([35S]GTPγS binding), FLNA-Binding Compound as Agonist 1 μM + BFNA: 1 μM compound + 1 μM β-funaltrexamine
Summary of the method: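 Striatal membranes (200 μg) were preincubated 5 min at 30 °C in HEPES pH 7.5 with 100 mM NaCl, 1 mM MgCl2 and 0.5 nM [35S]GTPγS, then 5 min more with 0.1–10 μM compound. Gαo was immunoprecipitated and bound radioactivity counted by scintillation.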

[2] = molecular target: FLNA pentapeptide of SEQ ID NO: 1 (Bn-VAKGL) (Homo sapiens, UniProt P21333); assay: FITC-NLX-based FLNA screening assay (inhibition of FITC-naloxone binding to Bn-VAKGL on streptavidin plates); details: 10 nM FITC-NLX
[3] = 0.1 μM compound relative to DAMGO
[4] = 1 μM compound + BFNA relative to DAMGO + BFNA
[5] = 1 μM compound relative to DAMGO
[6] = read-out: Percent Binding Inhibition, FLNA-binding compound 0.01 μM
[7] = read-out: Percent Binding Inhibition, FLNA-binding compound 0.1 μM
[8] = read-out: Percent Binding Inhibition, FLNA-binding compound 1 μM
[9] = FLNA-binding compound 0.01 μM, read-out: Percent Binding Inhibition
[10] = FLNA-binding compound 0.1 μM, read-out: Percent Binding Inhibition
[11] = FLNA-binding compound 1 μM, read-out: Percent Binding Inhibition
[12] = Series C-1, 0.1 μM compound, relative to DAMGO
[13] = Series C-1, 0.1 μM compound, [35S]GTPγS binding to Gαo, striatal membranes
[14] = Series C-1, 1 μM compound + 1 μM β-FNA
[15] = Series C-1, 1 μM compound + β-FNA, relative to DAMGO + BFNA
[16] = Series C-1, 1 μM compound, relative to DAMGO
[17] = Series C-1, 1 μM compound, [35S]GTPγS binding to Gαo, striatal membranes

Structure (SMILES)	MOR agonist activity ([35S]GTPγS binding), FLNA-Binding Compound as Agonist 0.1 μM ([1]; 0.1 μM compound)	% DAMGO (0.1 μM) [1, 3]	MOR agonist activity ([35S]GTPγS binding), FLNA-Binding Compound as Agonist 1 μM ([1]; 1 μM compound)	MOR agonist activity ([35S]GTPγS binding), FLNA-Binding Compound as Agonist 1 μM + BFNA [1]	% DAMGO + BFNA [1, 4]	% DAMGO (1 μM) [1, 5]	inhibition at 0.01 µM [2, 9]	inhibition at 0.1 µM [2, 10]	inhibition at 1 µM [2, 11]	% DAMGO (0.1 μM) [1, 12]	Concentration of FLNA-Binding Compound as Agonist 0.1 μM [1, 13]	Concentration of FLNA-Binding Compound as Agonist 1 μM + BFNA [1, 14]	% DAMGO + BFNA [1, 15]	% DAMGO (1 μM) [1, 16]	Concentration of FLNA-Binding Compound as Agonist 1 μM [1, 17]	other results
CC1CCC(C(C)C)C(OCC(O)CN2CCc3ccccc3C2)C1 (stereo not drawn) [Compound A0040]	46.1%	23.5%	149.0%	16.7%	22.6%	54.0%										inhibition at 0.01 µM [2, 6]: 45%; inhibition at 0.1 µM [2, 7]: 50.4%; inhibition at 1 µM [2, 8]: 56.3%
CC1CCC(C(C)C)C(OCC(O)CN2CCc3ccccc32)C1 (stereo not drawn) [Compound A0065]	197.6%	126.6%	266.8%	44.9%	112.5%	115.7%										Percent Binding Inhibition ([2]; FLNA-binding compound 0.01 μM): 38.7%; Percent Binding Inhibition ([2]; FLNA-binding compound 0.1 μM): 50.0%; Percent Binding Inhibition ([2]; FLNA-binding compound 1 μM): 50.8%
CC1CN(CC(O)COc2ccc(Br)c(Cl)c2)CC(C)O1 (stereo not drawn) [Compound A0045]	143.9%	73.3%	274.2%	99.2%	134.2%	99.3%	28.1%	35%	37.8%							
O=C1CN(Cc2ccccc2)C2(CCNCC2)N1 [Compound C0115M]																% DAMGO (0.1 μM) ([1]; Series C-2, 0.1 μM compound, relative to DAMGO): 105.7%; MOR agonist activity, percent [35S]GTPγS binding at the stated compound concentration ([1]; Series C-2, 0.1 μM compound, [35S]GTPγS binding to Gαo, striatal membranes): 177.2%; MOR agonist activity, percent [35S]GTPγS binding at the stated compound concentration ([1]; Series C-2, 1 μM compound + 1 μM β-FNA): 118.4%; % DAMGO + BFNA ([1]; Series C-2, 1 μM compound + β-FNA, relative to DAMGO + BFNA): 249.3%; % DAMGO (1 μM) ([1]; Series C-2, 1 μM compound, relative to DAMGO): 102.0%; MOR agonist activity, percent [35S]GTPγS binding at the stated compound concentration ([1]; Series C-2, 1 μM compound, [35S]GTPγS binding to Gαo, striatal membranes): 226.8%; inhibition at 0.01 µM [2, 6]: 47.8%; inhibition at 0.1 µM [2, 7]: 57.8%; inhibition at 1 µM [2, 8]: 59.9%
CCCCc1ccc(S(=O)(=O)N2CCC3(CC2)OCCN3S(=O)(=O)c2ccc(CCCC)cc2)cc1 [Compound C0030]							37.4%	45.4%	56%	96.0%	150.3%	95.0%	291.4%	98.0%	226.8%	
COc1ccc(S(=O)(=O)N2CCC3(CC2)OCCN3S(=O)(=O)c2ccc(OC)cc2)cc1 [Compound 7866]							38.5%	47.9%	53.4%	79.3%	152.3%	62.4%	129.5%	94.8%	308.2%	
O=S(=O)(c1ccc(Br)cc1Br)N1CCC2(CC1)OCCN2S(=O)(=O)c1ccc(Br)cc1Br [Compound C0070]							42.6%	50.6%	53.6%	96.2%	165.6%	114.2%	331.0%	95.9%	210.8%	

— patent publication US10363239B2, “Method for inhibiting growth of cancer cells” (Pain Therapeutics, Inc., priority 2013, dated 2019)
